Assay results: US9540361B2, “N-substituted azetidine derivatives” (Merck Sharp & Dohme B.V., priority 2010, dated 2017)

Experiments:
[1] = Rapid Rat PK after oral administration; type: in vivo, rats (Rattus Norvegicus); conditions: 20 umol/kg, plasma, oral 20 μmol/kg; for AUC: AUC(0-6h), read-out: RRat AUC; for Cmax: read-out: RRat Cmax
Method: In the context of the present invention with “orally bioavailable” is meant that compounds, when dosed orally to a rat show oral exposure as determined by quantification of compound plasma levels in that rat. Typically, compounds are dosed orally at 20 μmol/kg, as described in Example 14 hereinbelow. Oral exposure is determined by measuring plasma levels over the time range of 0-6 h after dosing and is expressed by AUC(0-6h).
This test was used to determine the pharmacokinetic parameters (AUC(0-6h), Cmax and Tmax) after oral administration of compounds in male (intact or castrated) or female (intact or ovariectomized) rats (Rattus Norvegicus).
After oral administration of a compound at 20 μmol/kg, blood was collected at various time points (0.5, 1, 2, 3, 4 and 6 hours after compound administration) via the tail vein. Plasma samples were pooled per time point, after which the concentration was determined in plasma by means of LC-MS. Pharmacokinetic parameters (AUC(0-6h), Cmax and Tmax) were derived from the obtained concentration versus time curves using the non-compartmental analysis module in Animals! or WinNonlin.

estrogen receptor alpha = target: T1, estrogen receptor alpha (Homo sapiens, UniProt P03372); experiment: ERα downregulation assay in T47D breast cancer cells (ERα ELISA); type: cell-based; conditions: downregulation of ERα relative to fulvestrant (100%), 1E-5 M, 24 hours, negative = upregulation
T1 construct: endogenous in cells; host or cells: T47D human breast cancer cells (ATCC)
T1 sequence (P03372 1-595): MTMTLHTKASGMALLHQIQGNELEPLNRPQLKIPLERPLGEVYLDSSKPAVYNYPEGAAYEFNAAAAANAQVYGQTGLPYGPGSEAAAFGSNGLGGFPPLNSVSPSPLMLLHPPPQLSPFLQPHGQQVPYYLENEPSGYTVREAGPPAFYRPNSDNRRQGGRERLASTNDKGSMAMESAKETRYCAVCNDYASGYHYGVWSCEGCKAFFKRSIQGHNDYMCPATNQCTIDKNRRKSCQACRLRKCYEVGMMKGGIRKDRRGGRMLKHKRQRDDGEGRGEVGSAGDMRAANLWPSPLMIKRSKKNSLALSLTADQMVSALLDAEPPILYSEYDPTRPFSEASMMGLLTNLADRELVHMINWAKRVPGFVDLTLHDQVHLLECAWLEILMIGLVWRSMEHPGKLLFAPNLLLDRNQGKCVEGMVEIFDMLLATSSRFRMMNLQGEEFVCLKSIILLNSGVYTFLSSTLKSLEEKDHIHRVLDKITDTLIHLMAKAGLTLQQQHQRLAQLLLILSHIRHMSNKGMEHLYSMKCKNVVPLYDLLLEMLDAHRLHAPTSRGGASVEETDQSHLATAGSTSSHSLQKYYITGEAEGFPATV
How it was run: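 T47D cells were treated with 1E-5 M test compound for 24 hours, then lysed in the well. ERα protein content was measured by ELISA. Efficacy is given as fraction of maximal response relative to fulvestrant, defined as 100% downregulation.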

[2] = target: T2, human estrogen receptor α (hERα) (Homo sapiens, UniProt P03372); experiment: antagonistic activity in CHO cells co-transfected with hERα, rat oxytocin promoter and luciferase reporter gene; type: cell-based; conditions: antagonism of 17β-estradiol-induced transactivation, CHO-hERα-RO-LUC; read-out: ERα pIC50 (converted)
T2 sequence (P03372 1-595): T1 sequence (P03372 1-595)
How it was run: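 Recombinant CHO cells stably carrying hERα, rat oxytocin promoter and luciferase reporter, with receptor activated by 17β-estradiol. Antagonist efficacy given as maximal inhibition relative to that of the reference anti-estrogen ICI 164,384.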

MCF-7H cells = experiment: 7-day in vitro proliferation assay in tamoxifen-resistant MCF-7H breast cancer cells (methyl-3H-thymidine incorporation); type: cell-based, human; conditions: Homo sapiens, MCF7, 168 h; efficacy (fraction of maximal response relative to E2) in MCF-7H proliferation; read-out: MCF7 ia
Method: To what extent compounds are capable of stimulating proliferation in ER-positive, tamoxifen-resistant breast cancer cells is tested in a 7-day in vitro proliferation assay using MCF-7H cells. More specifically, this in vitro bioassay is used to determine the efficacy (fraction of maximal response), pEC50, and relative potency of the compound to induce proliferation by comparing the data for this compound with those of the reference compound 17β-estradiol (E2) in the same test.
A more detailed description of the method used is as follows.
Cell culture: The human epithelial breast cancer cell line MCF-7H (origin: Hubrecht Laboratory, Utrecht, The Netherlands) was routinely maintained in complete medium which is a 1:1 mixture of Ham's F12 medium and Dulbecco's Modified Eagle Medium (DMEM; Invitrogen, Carlsbad, USA) without phenol red and enriched with 5% fetal calf serum (FCS; Hyclone, Utah, USA), 100 μg/ml streptomycin and 100 units/ml penicillin adapted to contain:
Cells were grown in 80 cm^2 culture flasks (Nunc, Roskilde, Denmark) and kept in an atmosphere of 5% CO2-95% air at 37 degrees Celsius. Cells were subcultured when they reached about 80-90% confluence, resulting in one passage a week. Subculturing includes detaching the cells using trypsin/EDTA and diluting the cell suspension 10 times.
Methyl-^3H-thymidine incorporation assay: MCF-7H cells were starved overnight in assay medium containing 5% charcoal-treated (CT) bovine calf serum (BCS; Hyclone) instead of FCS and a final concentration of 1.0 μg/ml bovine insulin, the day before plating. Cells were plated in assay medium containing 5% CT BCS, in white 24-wells plates (Perkin Elmer, Shelton, USA), at a density of 7.5×10^3 cells per well, each well containing 630 μL assay medium. Cells were allowed to attach and spread for 24 h before stimulation with reference and/or test compound(s). After a stimulation period of 7 days, 0.25 μCi/well of methyl-^3H-thymidine (GE Healthcare Limited, Buckinghamshire, UK) was added per well. Cultures were maintained in an atmosphere of 5% CO2-95% air at 37 degrees Celsius. After overnight incubation, excess methyl-^3H-thymidine was aspirated and the cells were washed with phosphate-buffered saline (PBS). After 1 h of incubation with 1 ml scintillation fluid Microscint-20 (Perkin Elmer), radioactivity was measured in a Packard TOP-count NXT microplate scintillation counter (Perkin Elmer).

SMILES | AUC [1] | Cmax [1] | DR (%) (estrogen receptor alpha) | IC50 [2] | Emax (MCF-7H cells)
CCCN1CC(Oc2ccc(C(=C(CC)c3ccccc3)c3cccc(O)c3)cc2)C1 (mixture of isomers) [compound 6w, (E/Z)-3-(2-phenyl-1-(4-(1-propylazetidin-3-yloxy)phenyl)but-1-enyl)phenol] | 1.07 µM·h | 230 nM | 63% | 5.01 nM | 
CCCN1CC(Oc2ccc(C(=C(CC)c3ccccc3)c3ccccc3)cc2)C1.O=C(O)C(F)(F)F [compound 6u, 3-(4-(1,2-diphenylbut-1-enyl)phenoxy)-1-propylazetidine 2,2,2-trifluoroacetate] | 1.97 µM·h | 450 nM | 75% | 31.6 nM | 8%
CCCN1CC(Oc2ccc(-c3c(-c4ccccc4Cl)noc3-c3ccc(O)cc3)cc2)C1 [compound 6g, 4-(4-(4-(N-propylazetidin-3-yloxy)phenyl)-3-(2-chlorophenyl)isoxazol-5-yl)-phenol] | 2.05 µM·h | 570 nM | 57% | 0.251 nM | 2%
Cl.Oc1ccc(-c2onc(-c3ccccc3Cl)c2-c2ccc(OC3CN(CC4CC4)C3)cc2)cc1 [compound 7y, 4-(3-(2-chlorophenyl)-4-(4-(1-(cyclopropylmethyl)azetidin-3-yloxy)phenyl)-isoxazol-5-yl)phenol hydrochloride] | 1.2 µM·h | 290 nM | 57% | 0.316 nM | 
CCCN1CC(Oc2ccc(C(O)c3c(-c4ccccc4Cl)noc3-c3ccc(O)cc3)cc2)C1 (stereo not shown) [compound 7av, 4-(3-(2-chlorophenyl)-4-(hydroxy(4-(1-propylazetidin-3-yloxy)phenyl)methyl)isoxazol-5-yl)phenol] | 3.8 µM·h | 990 nM | 84% | 25.1 nM | 
Cl.Oc1ccc(-c2onc(-c3ccccc3Cl)c2-c2ccc(OC3CN(CC4CCC4)C3)cc2)cc1 [compound 7z, 4-(3-(2-chlorophenyl)-4-(4-(1-(cyclobutylmethyl)azetidin-3-yloxy)phenyl)-isoxazol-5-yl)phenol hydrochloride] | 1.03 µM·h | 350 nM | 58% | 0.398 nM | 
CC(C)CN1CC(Oc2ccc(-c3c(-c4ccccc4Cl)noc3-c3ccc(O)cc3)cc2)C1.Cl [compound 7w, 4-(3-(2-chlorophenyl)-4-(4-(1-isobutylazetidin-3-yloxy)phenyl)isoxazol-5-yl)-phenol hydrochloride] | 1.55 µM·h | 520 nM | 32% | 0.316 nM | 
CCCN1CC(Oc2ccc(C(=O)c3c(-c4ccccc4Cl)noc3-c3ccc(O)cc3)cc2)C1.Cl [compound 6m, (3-(2-chlorophenyl)-5-(4-hydroxyphenyl)isoxazol-4-yl)(4-(1-propylazetidin-3-yloxy)phenyl)methanone hydrochloride] |  |  | 81% | 2 nM | 7%
Cl.Oc1ccc(-c2onc(-c3ccccc3Cl)c2-c2ccc(OC3CN(CCCF)C3)cc2)cc1 [compound 7aa, 4-(3-(2-chlorophenyl)-4-(4-(1-(3-fluoropropyl)azetidin-3-yloxy)phenyl)isoxazol-5-yl)phenol hydrochloride] | 3.58 µM·h | 990 nM | 93% | 1 nM | 
CCCN1CC(Oc2ccc(C(=O)c3c(-c4c(F)cccc4F)noc3-c3ccc(O)cc3)cc2)C1.Cl [compound 7ak, (3-(2,6-difluorophenyl)-5-(4-hydroxyphenyl)isoxazol-4-yl)(4-(1-propylazetidin-3-yloxy)phenyl)methanone hydrochloride] |  |  | 93% | 3.16 nM | 7%
CCCN1CC(Oc2ccc(C(=O)c3c(-c4ccccc4C)nsc3-c3ccc(O)cc3)cc2)C1.Cl [compound 7bb, (5-(4-hydroxyphenyl)-3-o-tolylisothiazol-4-yl)(4-(1-propylazetidin-3-yloxy)-phenyl)methanone hydrochloride] |  |  | 90% | 2 nM | 3%
